Laboratory results reported in BindingDB's records for doi:10.1021/acs.jnatprod.0c00251 (University of Halle-Wittenberg, 2020).
Numbered stars: 1 amine (or outer) side, 2 acyl side, 3 side chain; on linkers, the order of the positions; unused ones are H or OH. Bridge positions count the residues as written; N and C are the ends. Square brackets hold non-standard residues; d marks the D form. Peptide text beside a SMILES is read from it. * marks the point of attachment. Adda = CO[C@@H](Cc1ccccc1)[C@@H](C)/C=C(C)/C=C/[C@H](N[*:1])[C@H](C)C(=O)[*:2]; dAsp(3S-Me) = C[C@H](C(=O)[*:3])[C@@H](N[*:1])C(=O)[*:2]; d(γGlu) = O=C(O)[C@@H](CCC(=O)[*:2])N[*:1]; NMeDha = C=C(NC)C(=O)O; Propargyl = C#CC*

Columns and labels:
[1] = Substrate activity at OATP1B1 (unknown origin) expressed in HEK293 cells assessed as cytotoxicity incubated for 48 hrs by sulforhodamine B assay
[2] = Substrate activity at OATP1B3 (unknown origin) expressed in HEK293 cells assessed as cytotoxicity incubated for 48 hrs by sulforhodamine B assay

Compound	EC50 [1] [nM]	EC50 [2] [nM]
C#CCOc1ccc(C[C@@H]2NC(=O)[C@@H](C)NC(=O)C(=C)N(C)C(=O)CC[C@H](C(=O)O)NC(=O)[C@@H](C)[C@H](/C=C/C(C)=C/[C@H](C)[C@H](Cc3ccccc3)OC)NC(=O)[C@H](CCCNC(=N)N)NC(=O)[C@@H](C)[C@H](C(=O)O)NC2=O)cc1 (R[Adda][d(γGlu)][NMeDha][dA]Y(Propargyl)[dAsp(3S-Me)]-OH; lactam N-7)	1.1	2.4
C=C1C(=O)N[C@H](C)C(=O)N[C@@H](Cc2ccc(O)cc2)C(=O)N[C@@H](C(=O)O)[C@H](C)C(=O)N[C@@H](CCCNC(=N)N)C(=O)N[C@@H](/C=C/C(C)=C/[C@H](C)[C@H](Cc2ccccc2)OC)[C@H](C)C(=O)N[C@@H](C(=O)O)CCC(=O)N1C (R[Adda][d(γGlu)][NMeDha][dA]Y[dAsp(3S-Me)]-OH; lactam N-7)	4.5	3
C=C1C(=O)N[C@H](C)C(=O)N[C@@H](Cc2ccc(OCc3cn(-c4cc5ccc(O)cc5oc4=O)nn3)cc2)C(=O)N[C@@H](C(=O)O)[C@H](C)C(=O)N[C@@H](CCCNC(=N)N)C(=O)N[C@@H](/C=C/C(C)=C/[C@H](C)[C@H](Cc2ccccc2)OC)[C@H](C)C(=O)N[C@@H](C(=O)O)CCC(=O)N1C	1.7	1.4
